The text below walks through data of patent US9169254B2, “Spiroimidazolone derivative” (Chugai Seiyaku Kabushiki Kaisha, priority 2009, dated 2015).

The first test addresses T1, human PTH1 receptor (Homo sapiens, UniProt Q03431).
T1 sequence (Q03431 27-593): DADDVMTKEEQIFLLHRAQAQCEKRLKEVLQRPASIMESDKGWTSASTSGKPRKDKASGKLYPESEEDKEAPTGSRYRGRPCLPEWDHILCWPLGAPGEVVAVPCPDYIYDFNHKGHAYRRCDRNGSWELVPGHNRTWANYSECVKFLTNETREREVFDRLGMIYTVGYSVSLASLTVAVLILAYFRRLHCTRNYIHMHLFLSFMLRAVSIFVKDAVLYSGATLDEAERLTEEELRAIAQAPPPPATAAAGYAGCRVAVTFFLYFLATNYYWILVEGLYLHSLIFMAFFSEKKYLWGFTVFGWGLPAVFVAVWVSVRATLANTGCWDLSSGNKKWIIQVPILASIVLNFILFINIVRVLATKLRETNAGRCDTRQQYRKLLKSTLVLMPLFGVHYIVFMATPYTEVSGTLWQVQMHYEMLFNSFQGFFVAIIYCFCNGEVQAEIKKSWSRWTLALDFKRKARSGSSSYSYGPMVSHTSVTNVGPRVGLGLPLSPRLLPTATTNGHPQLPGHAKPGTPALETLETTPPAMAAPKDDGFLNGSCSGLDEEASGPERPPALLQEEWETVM
Put plainly: In vitro cAMP signal activity in HKRK-B7 cells (LLC-PK1 cells overexpressing the human PTH1 receptor). As to conditions: HKRK-B7 cells; compound at 1×10^−3 M; […]; 0.1 µM. The class given is cell-based.
On to `O=C(Nc1ccccc1)c1ccccc1S(=O)(=O)N1CCC2(CC1)N=C(C1CCCCC1)NC2=O` [Compound 957, 2-(2-Cyclohexyl-4-oxo-1,3,8-triaza-spiro[4.5]dec-1-ene-8-sulfonyl)-N-phenyl-benzamide], for which the “cAMP production activity (%)” value is 17%.

Still in this test, the particulars now being: HKRK-B7 cells; compound at 1×10^−3 M; cAMP produced as percentage of that produced by hPTH(1-34) at 100 nM.
Take `Cc1cc(N(C)C(N)=O)cc(C)c1CCS(=O)(=O)N1CCC2(CC1)N=C(C1CCC(=CCC(F)(F)F)CC1)NC2=O` (centres unmarked) [Compound 939, 1-[3,5-Dimethyl-4-(2-{4-oxo-2-[4-(3,3,3-trifluoro-propylidene)-cyclohexyl]-1,3,8-triaza-spiro[4.5]dec-1-ene-8-sulfonyl}-ethyl)-phenyl]-1-methyl-urea]: the “cAMP production activity (%)” value amounted to 111%.

`Cc1cc(N(C)C(N)=O)cc(C)c1CCS(=O)(=O)N1CCC2(CC1)N=C(C1CCC(CC=C(F)F)CC1)NC2=O` (centres unmarked) [Compound 940, 1-[4-(2-{2-[4-(3,3-difluoro-allyl)-cyclohexyl]-4-oxo-1,3,8-triaza-spiro[4.5]dec-1-ene-8-sulfonyl}-ethyl)-3,5-dimethyl-phenyl]-1-methyl-urea]: the “cAMP production activity (%)” value was 86%.

Take `Cc1cc(N(C)C(N)=O)cc(C)c1CCS(=O)(=O)N1CC2(C1)N=C(c1cccc(OC(F)(F)F)c1)NC2=O` [Compound 941, 1-(3,5-dimethyl-4-{2-[8-oxo-6-(3-trifluoromethoxy-phenyl)-2,5,7-triaza-spiro[3.4]oct-5-ene-2-sulfonyl]-ethyl}-phenyl)-1-methyl-urea]: the “cAMP production activity (%)” value turned out to be 21%.

As for `CC(=O)N(C)c1ccc(/C(F)=C\S(=O)(=O)N2CCC3(CC2)N=C(C2CCC(C)CC2)NC3=O)c(C)c1` (centres unmarked) [Compound 942, N-(4-{(E)-1-Fluoro-2-[2-(4-methyl-cyclohexyl)-4-oxo-1,3,8-triaza-spiro[4.5]dec-1-ene-8-sulfonyl]-vinyl}-3-methyl-phenyl)-N-methyl-acetamide], the “cAMP production activity (%)” value was determined as 31%.

For `Cc1cc(N2C(=O)CNC2=O)ccc1CCS(=O)(=O)N1CCC2(CC1)N=C(C1CCC(CCC(F)(F)F)CC1)NC2=O` (centres unmarked) [Compound 943, 3-[3-Methyl-4-(2-{4-oxo-2-[4-(3,3,3-trifluoro-propyl)-cyclohexyl]-1,3,8-triaza-spiro[4.5]dec-1-ene-8-sulfonyl}-ethyl)-phenyl]-imidazolidine-2,4-dione], the “cAMP production activity (%)” value came to 74%.

Turning to `Cc1cc(N2C(=O)CNC2=O)ccc1CCS(=O)(=O)N1CCC2(CC1)N=C(C1CCC(CCCC(F)(F)F)CC1)NC2=O` (centres unmarked) [Compound 944, 3-[3-methyl-4-(2-{4-oxo-2-[4-(4,4,4-trifluoro-butyl)-cyclohexyl]-1,3,8-triaza-spiro[4.5]dec-1-ene-8-sulfonyl}-ethyl)-phenyl]-imidazolidine-2,4-dione], the “cAMP production activity (%)” value came out at 71%.

On to `Cc1cc(N2C(=O)CNC2=O)ccc1CCS(=O)(=O)N1CCC2(CC1)N=C(C1CCC(/C=C/C(F)F)CC1)NC2=O` (centres unmarked) [Compound 945, 3-[4-(2-{2-[4-((E)-3,3-difluoro-propenyl)-cyclohexyl]-4-oxo-1,3,8-triaza-spiro[4.5]dec-1-ene-8-sulfonyl}-ethyl)-3-methyl-phenyl]-imidazolidine-2,4-dione], for which the “cAMP production activity (%)” value is reported as 77%.

Take `Cc1cc(N2C(=O)CNC2=O)ccc1CCS(=O)(=O)N1CCC2(CC1)N=C([C@H]1CC[C@H](CC=C(F)F)CC1)NC2=O` [Compound 946, 3-[4-(2-{2-[4-(3,3-difluoro-allyl)-cyclohexyl]-4-oxo-1,3,8-triaza-spiro[4.5]dec-1-ene-8-sulfonyl}-ethyl)-3-methyl-phenyl]-imidazolidine-2,4-dione]: the “cAMP production activity (%)” value is on record as 102%.

Turning to `Cc1cc(N2C(=O)CNC2=O)ccc1CCS(=O)(=O)N1CCC2(CC1)N=C(C1CCC(C(F)(F)F)CC1)NC2=O` (centres unmarked) [Compound 947, 3-(3-methyl-4-{2-[4-oxo-2-(4-trifluoromethyl-cyclohexyl)-1,3,8-triaza-spiro[4.5]dec-1-ene-8-sulfonyl]-ethyl}-phenyl)-imidazolidine-2,4-dione], the “cAMP production activity (%)” value came out at 89%.

In the case of `Cc1cc(N2C(=O)CNC2=O)ccc1CCS(=O)(=O)N1CCC2(CC1)N=C([C@H]1CC[C@H](CC(F)(F)F)CC1)NC2=O` [Compound 948, 3-[3-Methyl-4-(2-{4-oxo-2-[4-(2,2,2-trifluoro-ethyl)-cyclohexyl]-1,3,8-triaza-spiro[4.5]dec-1-ene-8-sulfonyl}-ethyl)-phenyl]-imidazolidine-2,4-dione], the “cAMP production activity (%)” value is recorded as 68%.

Regarding `CCC[C@@H]1CCC[C@H](C2=NC3(CCN(S(=O)(=O)CCc4ccc(N5C(=O)CNC5=O)cc4C)CC3)C(=O)N2)C1` [Compound 949, 3-(3-methyl-4-{2-[4-oxo-2-((1S,3R)-3-propyl-cyclohexyl)-1,3,8-triaza-spiro[4.5]dec-1-ene-8-sulfonyl]-ethyl}-phenyl)-imidazolidine-2,4-dione], the “cAMP production activity (%)” value is reported as 92%.

As for `Cc1cc(N2C(=O)CNC2=O)ccc1CCS(=O)(=O)N1CCC2(CC1)N=C([C@H]1CCC[C@@H](C)C1)NC2=O` [Compound 950, 3-(3-methyl-4-{2-[2-((1S,3R)-3-methyl-cyclohexyl)-4-oxo-1,3,8-triaza-spiro[4.5]dec-1-ene-8-sulfonyl]-ethyl}-phenyl)-imidazolidine-2,4-dione], the “cAMP production activity (%)” value is 59%.

Take `Cc1cc(N2C(=O)CNC2=O)ccc1CCS(=O)(=O)N1CCC2(CC1)N=C(C1CCC(C)(C)CC1)NC2=O` [Compound 951, 3-(4-{2-[2-(4,4-dimethyl-cyclohexyl)-4-oxo-1,3,8-triaza-spiro[4.5]dec-1-ene-8-sulfonyl]-ethyl}-3-methyl-phenyl)-imidazolidine-2,4-dione]: the “cAMP production activity (%)” value was 93%.

For the compound `Cc1cc(N2C(=O)CNC2=O)ccc1CCS(=O)(=O)N1CCC2(CC1)N=C(C1CC(C)(C)CC(C)(C)C1)NC2=O` [Compound 952, 3-(3-methyl-4-{2-[4-oxo-2-(3,3,5,5-tetramethyl-cyclohexyl)-1,3,8-triaza-spiro[4.5]dec-1-ene-8-sulfonyl]-ethyl}-phenyl)-imidazolidine-2,4-dione], the “cAMP production activity (%)” value amounted to 95%.

Turning to `CCC1CCC(C2=NC3(CCN(S(=O)(=O)CCc4cc(Cl)c(NC(C)=O)cc4C)CC3)C(=O)N2)CC1` (centres unmarked) [Compound 953, N-(2-Chloro-4-{2-[2-(4-ethyl-cyclohexyl)-4-oxo-1,3,8-triaza-spiro[4.5]dec-1-ene-8-sulfonyl]-ethyl}-5-methyl-phenyl)-acetamide], the “cAMP production activity (%)” value amounted to 77%.

In the case of `CCC1CCC(C2=NC3(CCN(S(=O)(=O)CCc4ccc(NC(C)=O)c(Cl)c4C)CC3)C(=O)N2)CC1` (centres unmarked) [Compound 954, N-(2-chloro-4-{2-[2-(4-ethyl-cyclohexyl)-4-oxo-1,3,8-triaza-spiro[4.5]dec-1-ene-8-sulfonyl]-ethyl}-3-methyl-phenyl)-acetamide], the “cAMP production activity (%)” value turned out to be 81%.

With `CC(=O)Nc1ccc(CCS(=O)(=O)N2CCC3(CC2)N=C([C@H]2CC[C@H](CCC(F)F)CC2)NC3=O)c(C)c1` [Compound 955, N-[4-(2-{2-[4-(3,3-Difluoro-propyl)-cyclohexyl]-4-oxo-1,3,8-triaza-spiro[4.5]dec-1-ene-8-sulfonyl}-ethyl)-3-methyl-phenyl]-acetamide], the “cAMP production activity (%)” value is 79%.

Take `Cc1cc(N2C(=O)CNC2=O)ccc1CCS(=O)(=O)N1CCC2(CC1)N=C(C1CCC(CCC(F)F)CC1)NC2=O` (centres unmarked) [Compound 956, 3-[4-(2-{2-[4-(3,3-difluoro-propyl)-cyclohexyl]-4-oxo-1,3,8-triaza-spiro[4.5]dec-1-ene-8-sulfonyl}-ethyl)-3-methyl-phenyl]-imidazolidine-2,4-dione]: the “cAMP production activity (%)” value is 87%.

Consider `Cc1cc(C(=O)N2CCN(C3CCN(C)CC3)CC2)ccc1CCS(=O)(=O)N1CCC2(CC1)N=C(c1cccc(C(F)(F)F)c1)NC2=O` [Compound 958], for which the “cAMP production activity (%)” value worked out at 49%.

Take `Cc1cc(C(=O)N2CC[C@@H](F)C2)cc(C)c1/C=C/S(=O)(=O)N1CCC2(CC1)N=C(c1cccc(OC(F)(F)F)c1)NC2=O` [Compound 959, 8-{(E)-2-[4-((R)-3-Fluoro-pyrrolidine-1-carbonyl)-2,6-dimethyl-phenyl]-ethenesulfonyl}-2-(3-trifluoromethoxy-phenyl)-1,3,8-triaza-spiro[4.5]dec-1-en-4-one]: the “cAMP production activity (%)” value came out at 77%.

Turning to `Cc1cc(C(=O)N2CCC(CO)CC2)cc(C)c1/C=C/S(=O)(=O)N1CCC2(CC1)N=C(c1cccc(OC(F)(F)F)c1)NC2=O` [Compound 960, 8-{(E)-2-[4-(4-hydroxymethyl-piperidine-1-carbonyl)-2,6-dimethyl-phenyl]-ethenesulfonyl}-2-(3-trifluoromethoxy-phenyl)-1,3,8-triaza-spiro[4.5]dec-1-en-4-one], the “cAMP production activity (%)” value worked out at 84%.

As for `Cc1cc(C(=O)N(C)C)cc(C)c1/C=C/S(=O)(=O)N1CCC2(CC1)N=C(c1cccc(OC(F)(F)F)c1)NC2=O` [Compound 961, 3,5,N,N-tetramethyl-4-{(E)-2-[4-oxo-2-(3-trifluoromethoxy-phenyl)-1,3,8-triaza-spiro[4.5]dec-1-ene-8-sulfonyl]-vinyl}-benzamide], the “cAMP production activity (%)” value came out at 92%.
